Reference: patent US5514662A, “Use of amphotericin B derivatives as protease inhibitors” (priority 1991, dated 1996)

Assays:
kallicrein = experiment: Activity of DABF-AmB on various proteases: kallicrein; format: biochemical; conditions: 1 μM, results not shown
Experimental: (§1) DABF-AmB was tested, at a concentration of 1 μM, on various proteases (papain, chymotrypsin, kallicrein, leucocyte elastase, cathopsin D and recombinant protease p10) under conditions and in the presence of substrates appropriate for each of the proteases tested.

leucocyte elastase = experiment: Activity of DABF-AmB on various proteases: leucocyte elastase; format: biochemical; conditions: 1 μM
Experimental: as §1

papain = papain (Carica papaya, UniProt P00784); experiment: Activity of DABF-AmB on various proteases: papain; format: biochemical; conditions: 1 μM
Experimental: as §1

Jurkat cells = experiment: Cell viability of Jurkat cells; format: cell-based, human; conditions: concentrations above 100 μM
Text: Cell viability was estimated at the same time. […] It therefore appears that DABF-AmB inhibits the replication of HIV at doses which are not cytotoxic.

HIV-1 = experiment: Reverse transcriptase activity in HIV-1 infected PBMCs; format: cell-based
Experimental: The T cells (Jurkat and CEM) used are very permissive to HIV infection. They are cultured in RPMI 1640 medium supplemented with 10% foetal calf serum, 2 mM of glutamine and a mixture of penicillin and streptomycin. The peripheral blood mononuclear cells are obtained from blood from healthy donors, isolated on a Ficoll Hypaque gradient and stimulated with 10 μg/ml of phytohaemagglutinin A (PHA), for two days, in RPMI 1640 medium supplemented, prior to the infection by HIV, with amikacin and vancomycin (10 mg/ml), polybrene (1 mg/ml) and anti-interferon gamma serum (5 U/ml). After infection, the PBMCs are cultured (10^5 per well) in flat-bottomed 96-well plates in the same RPMI 1640 medium (200 μl per well).
The PBMCs cells (2×10^6 /ml) are infected with the same viruses and under the same conditions as the Jurkat or CEM cells. They are then washed and resuspended in fresh culture medium in flat-bottomed 96-well plates (10^5 cells per well in […]).
The reverse transcriptase activity is determined at the indicated times using the culture supernatant, according to the procedure described by REY et al., Biochem. Res. Comm. 121, 126-133 (1984).
PBMCs isolated from healthy individuals are infected with HIV-1. The production of antigen p24 as well as the reverse transcriptase activity can be detected in the supernatants of cultures infected 3 days after the infection. The maximum reverse transcriptase activity and p24 synthesis are observed between the 6th and 7th day, and the 5th and 6th day respectively. No cell death is observed at this time.
The infected PBMCs are treated continuously as described above for the Jurkat and CEM cells, using increasing concentrations of DABF-AmB.
The effect of DABF-AmB on the reverse transcriptase activity and on the secretion of p24 is evaluated on the 6th day.

PBMCs = experiment: Cytotoxicity on PBMCs; format: cell-based, human; conditions: concentrations up to 10^-3 M
HUT78 cells = experiment: Cytotoxicity in HUT78 cells; format: cell-based

papain, sequence (P00784 134-345): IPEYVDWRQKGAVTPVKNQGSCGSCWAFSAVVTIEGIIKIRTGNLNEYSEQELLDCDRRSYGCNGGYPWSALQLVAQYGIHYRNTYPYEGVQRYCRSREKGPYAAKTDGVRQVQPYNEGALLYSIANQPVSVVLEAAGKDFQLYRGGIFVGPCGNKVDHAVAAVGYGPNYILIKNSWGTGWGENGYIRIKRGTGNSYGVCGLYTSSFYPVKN

SMILES: C[C@@H]1[C@H](O)[C@@H](C)/C=C/C=C/C=C/C=C/C=C/C=C/C=C/[C@H](O[C@@H]2O[C@H](C)[C@@H](O)[C@H](NCC(=O)[C@@H](O)[C@@H]3OC(c4ccccc4)OC[C@H]3O)[C@@H]2O)C[C@@H]2O[C@](O)(C[C@@H](O)C[C@@H](O)[C@H](O)CC[C@@H](O)C[C@@H](O)CC(=O)O[C@H]1C)C[C@H](O)[C@H]2C(=O)O (stereo partly drawn) [DABF-AmB, 1-deoxy-1-amino-4,6-O-benzylidene-D-fructosyl-AmB]
- inhibition of kallicrein (kallicrein): inhibits
- inhibition of leucocyte elastase (leucocyte elastase): inhibits
- inhibition of papain (papain): does not inhibit
- cytotoxic effect (Jurkat cells): no cytotoxic effect
- inhibition at 10 µM (HIV-1; Human immunodeficiency virus 1, PBMC, 144 h, PBMCs, 10 μM, 6th day, N=3): 92 ± 4%
- increase in the anti-HIV action in PBMCs (HIV-1; concentrations above 20 μM): do not bring about a significant increase
- anti-HIV inhibition in PBMCs (in words) (HIV-1; concentrations below 1 μM): only a low inhibition
- cytotoxic effect on PBMCs (PBMCs): without cytotoxic effect
- cytotoxicity (HUT78 cells; 50 μM, HIV2 table, 3 days): low cytotoxicity
- cytotoxicity (HUT78 cells; 50 μM, SIV table, 3 days): low cytotoxicity
- cytotoxicity (HUT78 cells; 100 μM, HIV2 table, 3 days): high cytotoxicity
- cytotoxicity (HUT78 cells; 100 μM, HIV2 table, 5 days): cytotoxicity
- cytotoxicity (HUT78 cells; 100 μM, SIV table, 3 days): high cytotoxicity
- cytotoxicity (HUT78 cells; 100 μM, SIV table, 5 days): cytotoxicity
